Tests used:
AMBEL (Ragweed, Common) [1] = assay: Preemergence herbicidal evaluation; type: in vivo, Ambrosia artemisifolia; settings: rated 4-5 weeks after treatment
In short: (§1)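 Seeds were mixed with potting soil and planted on about one inch of soil, then sprayed with test compound in aqueous acetone at about 0.0156 to 0.500 kg per hectare. Plants grew under standard greenhouse care and were visually rated 0-9 against untreated controls 4-5 weeks post-treatment.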

ECHCG (Barnyardgrass) = assay: Preemergence herbicidal evaluation; type: in vivo, Echinochloa crus-galli; settings: rated 4-5 weeks after treatment
In short: as §1

[2] = test system: GLXMAW (Soybean, Williams); assay: Postemergence herbicidal evaluation; type: in vivo, Glycine max, (L.) Merr. cv Williams; settings: postemergence
In short: (§2)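 Each compound, dispersed in an acetone/water mix (50/50) carrying 0.5% TWEEN 20, is nozzle-sprayed at 40 psi on approximately two-week-old seedlings at about 0.0156–0.500 kg/ha. Plants are assessed 4–5 weeks afterward on a 0–9 scale relative to control; duplicate tests are averaged.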

CYPSE (Flatsedge) = assay: Preemergence weed control under flooded paddy conditions; type: in vivo, Cyperus serotinus; settings: rated 3-4 weeks after treatment
In short: (§3)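 Using flooded silt loam (water 1.5 to 3 cm deep), seeds sown in the top 0.5 cm were exposed preemergence to compound pipetted into the flood at about 0.0313 to 0.500 kg/ha. Effects were scored 0-9 by eye three to four weeks later.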

[3] = test system: GLXMAW (Soybean, Williams); assay: Preemergence herbicidal evaluation; type: in vivo, Glycine max, (L.) Merr. cv Williams; settings: rated 4-5 weeks after treatment
In short: as §1

ZEAMX (Corn, Field) = assay: Postemergence herbicidal evaluation; type: in vivo, Zea mays; settings: postemergence
In short: as §2

GALAP (Galium) = assay: Preemergence herbicidal evaluation; type: in vivo, Galium aparine; settings: rated 4-5 weeks after treatment
In short: as §1

CASOB (Sicklepod) = assay: Preemergence herbicidal evaluation; type: in vivo, Cassia obtusifolia; settings: rated 4-5 weeks after treatment
In short: as §1

ABUTH (Velvetleaf) = assay: Preemergence herbicidal evaluation; type: in vivo, Abutilon theophrasti; settings: rated 4-5 weeks after treatment
In short: as §1

SETVI (Foxtail, Green) = assay: Preemergence herbicidal evaluation; type: in vivo, Setaria viridis; settings: rated 4-5 weeks after treatment
In short: as §1

[4] = test system: IPOHE (Morningglory, Ivyleaf); assay: Postemergence herbicidal evaluation; type: in vivo, Ipomoea hederacea; settings: postemergence
In short: as §2

AMBEL (Ragweed, Common) [5] = assay: Postemergence herbicidal evaluation; type: in vivo, Ambrosia artemisifolia; settings: postemergence
In short: as §2

[6] = test system: SAGPY (Arrowhead (Pygmaea)); assay: Preemergence weed control under flooded paddy conditions; type: in vivo, Sagittaria pygmaea; settings: rated 3-4 weeks after treatment
In short: as §3

CC(C)OC(=O)CN1C(=O)CSC1=Nc1cc(-n2c(=O)cc(C(F)(F)F)n(C)c2=O)c(F)cc1Cl [Compound 110]
Preemergence herbicidal rating AMBEL (AMBEL (Ragweed, Common) [1]; rate 0.0156 kg/ha): 1.0 | Preemergence herbicidal rating AMBEL (AMBEL (Ragweed, Common) [1]; rate 0.0313 kg/ha): 2.5 | Preemergence herbicidal rating AMBEL (AMBEL (Ragweed, Common) [1]; rate 0.0625 kg/ha): 3.5 | Preemergence herbicidal rating AMBEL (AMBEL (Ragweed, Common) [1]; rate 0.1250 kg/ha): 4.5 | Preemergence herbicidal rating AMBEL (AMBEL (Ragweed, Common) [1]; rate 0.2500 kg/ha): 6.5 | Preemergence herbicidal rating AMBEL (AMBEL (Ragweed, Common) [1]; rate 0.5000 kg/ha): 9.0 | Preemergence herbicidal rating ECHCG (ECHCG (Barnyardgrass); rate 0.0156 kg/ha): 0.0 | Preemergence herbicidal rating ECHCG (ECHCG (Barnyardgrass); rate 0.0313 kg/ha): 0.0 | Preemergence herbicidal rating ECHCG (ECHCG (Barnyardgrass); rate 0.0625 kg/ha): 0.5 | Preemergence herbicidal rating ECHCG (ECHCG (Barnyardgrass); rate 0.1250 kg/ha): 2.0 | Preemergence herbicidal rating ECHCG (ECHCG (Barnyardgrass); rate 0.2500 kg/ha): 3.0 | Preemergence herbicidal rating ECHCG (ECHCG (Barnyardgrass); rate 0.5000 kg/ha): 4.0 | Herbicidal rating GLXMAW ([2]; rate 0.0158 kg/ha): 5.0 | Herbicidal rating GLXMAW ([2]; rate 0.0315 kg/ha): 6.5 | Herbicidal rating GLXMAW ([2]; rate 0.0630 kg/ha): 6.5 | CYPSE herbicidal effect rating (CYPSE (Flatsedge); 0.0313 kg/ha): 0.0 | CYPSE herbicidal effect rating (CYPSE (Flatsedge); 0.0625 kg/ha): 0.0 | CYPSE herbicidal effect rating (CYPSE (Flatsedge); 0.1250 kg/ha): 0.0 | CYPSE herbicidal effect rating (CYPSE (Flatsedge); 0.2500 kg/ha): 0.0 | Preemergence herbicidal rating GLXMAW ([3]; rate 0.0156 kg/ha): 0.5 | Preemergence herbicidal rating GLXMAW ([3]; rate 0.0313 kg/ha): 0.5 | Preemergence herbicidal rating GLXMAW ([3]; rate 0.0625 kg/ha): 2.5 | Preemergence herbicidal rating GLXMAW ([3]; rate 0.1250 kg/ha): 4.0 | Preemergence herbicidal rating GLXMAW ([3]; rate 0.2500 kg/ha): 5.5 | Preemergence herbicidal rating GLXMAW ([3]; rate 0.5000 kg/ha): 7.0 | Herbicidal rating ZEAMX (ZEAMX (Corn, Field); rate 0.0158 kg/ha): 5.0 | Herbicidal rating ZEAMX (ZEAMX (Corn, Field); rate 0.0315 kg/ha): 6.5 | Herbicidal rating ZEAMX (ZEAMX (Corn, Field); rate 0.0630 kg/ha): 7.0 | Preemergence herbicidal rating GALAP (GALAP (Galium); rate 0.0156 kg/ha): 0.0 | Preemergence herbicidal rating GALAP (GALAP (Galium); rate 0.0313 kg/ha): 0.0 | Preemergence herbicidal rating GALAP (GALAP (Galium); rate 0.0625 kg/ha): 0.0 | Preemergence herbicidal rating GALAP (GALAP (Galium); rate 0.1250 kg/ha): 0.0 | Preemergence herbicidal rating GALAP (GALAP (Galium); rate 0.2500 kg/ha): 2.0 | Preemergence herbicidal rating CASOB (CASOB (Sicklepod); rate 0.0156 kg/ha): 0.0 | Preemergence herbicidal rating CASOB (CASOB (Sicklepod); rate 0.0313 kg/ha): 0.0 | Preemergence herbicidal rating CASOB (CASOB (Sicklepod); rate 0.0625 kg/ha): 0.0 | Preemergence herbicidal rating CASOB (CASOB (Sicklepod); rate 0.1250 kg/ha): 2.0 | Preemergence herbicidal rating CASOB (CASOB (Sicklepod); rate 0.2500 kg/ha): 5.0 | Preemergence herbicidal rating CASOB (CASOB (Sicklepod); rate 0.5000 kg/ha): 9.0 | Preemergence herbicidal rating ABUTH (ABUTH (Velvetleaf); rate 0.0156 kg/ha): 5.5 | Preemergence herbicidal rating ABUTH (ABUTH (Velvetleaf); rate 0.0313 kg/ha): 9.0 | Preemergence herbicidal rating ABUTH (ABUTH (Velvetleaf); rate 0.0625 kg/ha): 9.0 | Preemergence herbicidal rating ABUTH (ABUTH (Velvetleaf); rate 0.1250 kg/ha): 9.0 | Preemergence herbicidal rating ABUTH (ABUTH (Velvetleaf); rate 0.2500 kg/ha): 9.0 | Preemergence herbicidal rating ABUTH (ABUTH (Velvetleaf); rate 0.5000 kg/ha): 9.0 | Preemergence herbicidal rating SETVI (SETVI (Foxtail, Green); rate 0.0156 kg/ha): 1.5 | Preemergence herbicidal rating SETVI (SETVI (Foxtail, Green); rate 0.0313 kg/ha): 2.5 | Preemergence herbicidal rating SETVI (SETVI (Foxtail, Green); rate 0.0625 kg/ha): 5.0 | Preemergence herbicidal rating SETVI (SETVI (Foxtail, Green); rate 0.1250 kg/ha): 8.0 | Preemergence herbicidal rating SETVI (SETVI (Foxtail, Green); rate 0.2500 kg/ha): 9.0 | Preemergence herbicidal rating SETVI (SETVI (Foxtail, Green); rate 0.5000 kg/ha): 9.0 | Herbicidal rating IPOHE ([4]; rate 0.0158 kg/ha): 9.0 | Herbicidal rating IPOHE ([4]; rate 0.0315 kg/ha): 9.0 | Herbicidal rating IPOHE ([4]; rate 0.0630 kg/ha): 9.0 | Herbicidal rating AMBEL (AMBEL (Ragweed, Common) [5]; rate 0.0158 kg/ha): 5.0 | Herbicidal rating AMBEL (AMBEL (Ragweed, Common) [5]; rate 0.0315 kg/ha): 4.0 | Herbicidal rating AMBEL (AMBEL (Ragweed, Common) [5]; rate 0.0630 kg/ha): 9.0 | SAGPY herbicidal effect rating ([6]; 0.0313 kg/ha): 6.0 | SAGPY herbicidal effect rating ([6]; 0.0625 kg/ha): 7.0 | SAGPY herbicidal effect rating ([6]; 0.1250 kg/ha): 7.0 | SAGPY herbicidal effect rating ([6]; 0.2500 kg/ha): 8.0

Cn1c(C(F)(F)F)cc(=O)n(-c2cc(N=C3SCC(=O)N3C3CCC3)c(Cl)cc2F)c1=O [Compound 168, 3-{4-Chloro-5-[(3-cyclobutyl-4-oxo-2-thiazolidinylidene)amino]-2-fluorophenyl}-1-methyl-6-(trifluoromethyl)-2,4(1H,3H)-pyrimidinedione]
Preemergence herbicidal rating AMBEL (AMBEL (Ragweed, Common) [1]; 0.0156 kg/ha): 0.0 | Preemergence herbicidal rating AMBEL (AMBEL (Ragweed, Common) [1]; 0.0313 kg/ha): 0.0 | Preemergence herbicidal rating AMBEL (AMBEL (Ragweed, Common) [1]; 0.0625 kg/ha): 0.0 | Preemergence herbicidal rating AMBEL (AMBEL (Ragweed, Common) [1]; 0.1250 kg/ha): 0.0 | Preemergence herbicidal rating AMBEL (AMBEL (Ragweed, Common) [1]; 0.2500 kg/ha): 5.0 | Preemergence herbicidal rating ECHCG (ECHCG (Barnyardgrass); 0.0156 kg/ha): 0.0 | Preemergence herbicidal rating ECHCG (ECHCG (Barnyardgrass); 0.0313 kg/ha): 0.0 | Preemergence herbicidal rating ECHCG (ECHCG (Barnyardgrass); 0.0625 kg/ha): 0.0 | Preemergence herbicidal rating ECHCG (ECHCG (Barnyardgrass); 0.1250 kg/ha): 0.0 | Preemergence herbicidal rating ECHCG (ECHCG (Barnyardgrass); 0.2500 kg/ha): 0.0 | Herbicidal rating GLXMAW ([2]; rate 0.0156 kg/ha): 5.5 | Herbicidal rating GLXMAW ([2]; rate 0.0313 kg/ha): 6.5 | Herbicidal rating GLXMAW ([2]; rate 0.0625 kg/ha): 7.0 | herbicidal effect rating, CYPSE (CYPSE (Flatsedge); 0.0313 kg/ha): 0.0 | herbicidal effect rating, CYPSE (CYPSE (Flatsedge); 0.0625 kg/ha): 0.0 | herbicidal effect rating, CYPSE (CYPSE (Flatsedge); 0.1250 kg/ha): 0.0 | Preemergence herbicidal rating GLXMAW ([3]; 0.0156 kg/ha): 0.0 | Preemergence herbicidal rating GLXMAW ([3]; 0.0313 kg/ha): 0.0 | Preemergence herbicidal rating GLXMAW ([3]; 0.0625 kg/ha): 0.0 | Preemergence herbicidal rating GLXMAW ([3]; 0.1250 kg/ha): 0.0 | Preemergence herbicidal rating GLXMAW ([3]; 0.2500 kg/ha): 0.0 | Herbicidal rating ZEAMX (ZEAMX (Corn, Field); rate 0.0156 kg/ha): 4.5 | Herbicidal rating ZEAMX (ZEAMX (Corn, Field); rate 0.0313 kg/ha): 4.5 | Herbicidal rating ZEAMX (ZEAMX (Corn, Field); rate 0.0625 kg/ha): 7.0 | Preemergence herbicidal rating GALAP (GALAP (Galium); 0.0156 kg/ha): 0.0 | Preemergence herbicidal rating GALAP (GALAP (Galium); 0.0313 kg/ha): 0.0 | Preemergence herbicidal rating GALAP (GALAP (Galium); 0.0625 kg/ha): 0.0 | Preemergence herbicidal rating GALAP (GALAP (Galium); 0.1250 kg/ha): 0.0 | Preemergence herbicidal rating GALAP (GALAP (Galium); 0.2500 kg/ha): 3.0 | Preemergence herbicidal rating CASOB (CASOB (Sicklepod); 0.0156 kg/ha): 0.0 | Preemergence herbicidal rating CASOB (CASOB (Sicklepod); 0.0313 kg/ha): 0.0 | Preemergence herbicidal rating CASOB (CASOB (Sicklepod); 0.0625 kg/ha): 0.0 | Preemergence herbicidal rating CASOB (CASOB (Sicklepod); 0.1250 kg/ha): 0.0 | Preemergence herbicidal rating CASOB (CASOB (Sicklepod); 0.2500 kg/ha): 0.0 | Preemergence herbicidal rating ABUTH (ABUTH (Velvetleaf); 0.0156 kg/ha): 0.0 | Preemergence herbicidal rating ABUTH (ABUTH (Velvetleaf); 0.0313 kg/ha): 0.0 | Preemergence herbicidal rating ABUTH (ABUTH (Velvetleaf); 0.0625 kg/ha): 4.0 | Preemergence herbicidal rating ABUTH (ABUTH (Velvetleaf); 0.1250 kg/ha): 9.0 | Preemergence herbicidal rating ABUTH (ABUTH (Velvetleaf); 0.2500 kg/ha): 9.0 | Preemergence herbicidal rating SETVI (SETVI (Foxtail, Green); 0.0156 kg/ha): 0.0 | Preemergence herbicidal rating SETVI (SETVI (Foxtail, Green); 0.0313 kg/ha): 0.0 | Preemergence herbicidal rating SETVI (SETVI (Foxtail, Green); 0.0625 kg/ha): 0.0 | Preemergence herbicidal rating SETVI (SETVI (Foxtail, Green); 0.1250 kg/ha): 0.0 | Preemergence herbicidal rating SETVI (SETVI (Foxtail, Green); 0.2500 kg/ha): 5.0 | Herbicidal rating IPOHE ([4]; rate 0.0156 kg/ha): 5.0 | Herbicidal rating IPOHE ([4]; rate 0.0313 kg/ha): 9.0 | Herbicidal rating IPOHE ([4]; rate 0.0625 kg/ha): 9.0 | Herbicidal rating AMBEL (AMBEL (Ragweed, Common) [5]; rate 0.0156 kg/ha): 3.0 | Herbicidal rating AMBEL (AMBEL (Ragweed, Common) [5]; rate 0.0313 kg/ha): 9.0 | Herbicidal rating AMBEL (AMBEL (Ragweed, Common) [5]; rate 0.0625 kg/ha): 9.0 | herbicidal effect rating, SAGPY ([6]; 0.0313 kg/ha): 0.0 | herbicidal effect rating, SAGPY ([6]; 0.0625 kg/ha): 0.0 | herbicidal effect rating, SAGPY ([6]; 0.1250 kg/ha): 0.0 | herbicidal effect rating, SAGPY ([6]; 0.2500 kg/ha): 2.0

Reference: patent US20020137929A1, “1 - (3-heterocyclylphenyl) isothiourea, -isourea, -guanidine and -amidine herbicidal agents” (Intellectual Property Department, BASF Aktiengesellschaft, priority 1998, published 2002)
